Assay results taken from patent US20250313547A1, “CEREBLON LIGANDS AND BIFUNCTIONAL COMPOUNDS COMPRISING THE SAME” (Arvinas Operations, Inc., priority 2017, published 2025).

System: androgen receptor (AR)
Experiment: AR ELISA assay (androgen receptor degradation)
Type: cell-based
Details: LNCaP and/or VCaP cells, 5 hours drug treatment; for AR Dmax: % degraded
Description: 5. AR ELISA Assay Protocol
Compounds were evaluated in this assay in LNCaP and/or VCaP cells utilizing similar protocols. The protocols used with VCaP cells are described below. The androgen receptor ELISA assay was performed using PathScan AR Sandwich ELISA (Cell Signaling Catalog #12850) according to the following assay steps:
VCaP cells were seeded at 40,000 cells/well at a volume of 100 µL/well in VCaP assay medium [Phenol red free RPMI (Gibco Cat #11835-030); 5% Charcoal Stripped (Dextran treated) FBS (Omega Scientific, Cat #FB-04); 1% penstrep (Life Technologies, Gibco Cat #: 10378-016)] in Corning 3904 plates. The cells were incubated for a minimum of 3 days. Cells were dosed with PROTACs diluted in 0.01% DMSO and the drug treatment was allowed for 5 hours.
AR ELISA (Cell Signaling) was performed as follows. 1×Cell Signaling Cell lysis buffer was made (Catalogue #9803; comes with the kit). Media from the treated wells is aspirated, and 100 μL 1×cell lysis buffer/well is added. The cells were placed on a shaker for 10 minutes at 4° C. Twenty microliters of lysate was transferred to 100 μl of Diluent in ELISA plate ([…]-0.075 μg/ml). The lysate-diluent mixture was shaken for 30 minutes at 37° C. Allow mouse AR antibody, anti-mouse antibody, TMB, and STOP solution to come to room temperature. The 1×ELISA buffer included in kit was made and loaded in the reservoir. Media from the plates was discarded, the ELISA plate tapped hard on paper towel, and washed 4×200 μl ELISA wash buffer using a plate washer.
One-hundred (100) μL/well of mouse AR detection Ab was added; the plates were covered and shaken at 37° C. for 1 hour; media was discarded from the plates, the plates were tapped on a paper towel, washed 4× with 200 μL ELISA wash buffer with a plate washer.
One-hundred (100) μL/well of anti-mouse—HRP conjugated Ab (comes with the kit) was added; the plates were covered and shaken at 37° C. for 30 minutes; the TMB reagent was allowed to come to room temperature; the media was discard from the plate, the plates were tapped on paper towel, washed 4× with 200 μL of ELISA wash buffer; the plates were tapped the plates on paper towel. One-hundred (100) μL of TMB was added and the plates shaken for 2 minutes—while watching for color development. One-hundred (100) μL Stop solution was added when light blue color developed. Plates were shaken and read at 450 nm.

| SMILES | AR Dmax | DC50 |
| --- | --- | --- |
| CC1(C)[C@H](NC(=O)c2cnc(N3CCC(CN4CCN(c5ccc(C(=O)NC6CCC(=O)NC6=O)nc5)CC4)CC3)cn2)C(C)(C)[C@H]1Oc1ccc(C#N)c(Cl)c1 (mixture of isomers) [PROTAC-56, rac-N-((1r,3r)-3-(3-chloro-4-cyanophenoxy)-2,2,4,4-tetramethylcyclobutyl)-5-(4-((4-(6-((2,6-dioxopiperidin-3-yl)carbamoyl)pyridin-3-yl)piperazin-1-yl)methyl)piperidin-1-yl)pyrazine-2-carboxamide] | B (50 < B <= 75) | 1 to 10 nM |
| CC1(C)[C@H](NC(=O)c2ccc(N3CCC(CN4CCN(c5ccc6c(c5)C(=O)N(c5ccc(=O)[nH]c5)C6=O)CC4)CC3)cc2)C(C)(C)[C@H]1Oc1ccc(C#N)c(Cl)c1 [PROTAC-43, N-((1r,3r)-3-(3-chloro-4-cyanophenoxy)-2,2,4,4-tetramethylcyclobutyl)-4-(4-((4-(1,3-dioxo-2-(6-oxo-1,6-dihydropyridin-3-yl)isoindolin-5-yl)piperazin-1-yl)methyl)piperidin-1-yl)benzamide] | C (C <= 50) | ≥ 100 nM |
| CC1(C)[C@H](NC(=O)c2ccc(N3CCC(CN4CCN(c5ccc6c(c5)C(=O)N(C5CC(=O)NC5=O)C6=O)CC4)CC3)cc2)C(C)(C)[C@H]1Oc1ccc(C#N)c(Cl)c1 (stereo partly shown) [PROTAC-66, N-((1r,3r)-3-(3-chloro-4-cyanophenoxy)-2,2,4,4-tetramethylcyclobutyl)-4-(4-((4-(2-(2,5-dioxopyrrolidin-3-yl)-1,3-dioxoisoindolin-5-yl)piperazin-1-yl)methyl)piperidin-1-yl)benzamide] | C (C <= 50) | ≥ 100 nM |
| CC1(C)[C@H](NC(=O)c2ccc(N3CCN(CCCCCOc4ccc5c(c4)C(=O)N(c4ccc(F)cc4F)C5=O)CC3)nc2)C(C)(C)[C@H]1Oc1ccc(C#N)c(Cl)c1 [PROTAC-41, N-((1r,3r)-3-(3-chloro-4-cyanophenoxy)-2,2,4,4-tetramethylcyclobutyl)-6-(4-(5-((2-(2,4-difluorophenyl)-1,3-dioxoisoindolin-5-yl)oxy)pentyl)piperazin-1-yl)nicotinamide] | C (C <= 50) | ≥ 100 nM |
| CC1(C)[C@H](NC(=O)c2ccc(N3CCN(CCCCOc4ccc(C(=O)NC5CCC(=O)NC5=O)nc4)CC3)nc2)C(C)(C)[C@H]1Oc1ccc(C#N)c(Cl)c1 (mixture of isomers) [PROTAC-51, rac-5-(4-(4-(5-(((1r,3r)-3-(3-chloro-4-cyanophenoxy)-2,2,4,4-tetramethylcyclobutyl)carbamoyl)pyridin-2-yl)piperazin-1-yl)butoxy)-N-(2,6-dioxopiperidin-3-yl)picolinamide] | C (C <= 50) | < 1 nM |
| Cn1c(-c2ccc(OCCCCCN3CCN(c4ccc(C(=O)N[C@H]5C(C)(C)[C@H](Oc6ccc(C#N)c(Cl)c6)C5(C)C)cc4)CC3)cc2)nn(C2CCC(=O)NC2=O)c1=O (mixture of isomers) [PROTAC-69, rac-N-((1r,3r)-3-(3-chloro-4-cyanophenoxy)-2,2,4,4-tetramethylcyclobutyl)-4-(4-(5-(4-(1-(2,6-dioxopiperidin-3-yl)-4-methyl-5-oxo-4,5-dihydro-1H-1,2,4-triazol-3-yl)phenoxy)pentyl)piperazin-1-yl)benzamide] | B (50 < B <= 75) | < 1 nM |
| CC1(C)[C@H](NC(=O)c2ccc(N3CCC(CN4CCN(c5ccc(C(=O)NC6CCC(=O)NC6=O)nc5)CC4)CC3)cc2)C(C)(C)[C@H]1Oc1ccc(C#N)c(Cl)c1 (mixture of isomers) [PROTAC-55, rac-5-(4-((1-(4-(((1r,3r)-3-(3-chloro-4-cyanophenoxy)-2,2,4,4-tetramethylcyclobutyl)carbamoyl)phenyl)piperidin-4-yl)methyl)piperazin-1-yl)-N-(2,6-dioxopiperidin-3-yl)picolinamide] | B (50 < B <= 75) | < 1 nM |
| CC1(C)[C@H](NC(=O)c2ccc(N3CCC(CCN4CCN(c5cnn(C6CCC(=O)NC6=O)c(=O)c5)CC4)CC3)cc2)C(C)(C)[C@H]1Oc1ccc(C#N)c(Cl)c1 (mixture of isomers) [PROTAC-63, rac-N-((1r,3r)-3-(3-chloro-4-cyanophenoxy)-2,2,4,4-tetramethylcyclobutyl)-4-(4-(2-(4-(1-(2,6-dioxopiperidin-3-yl)-6-oxo-1,6-dihydropyridazin-4-yl)piperazin-1-yl)ethyl)piperidin-1-yl)benzamide] | A (A > 75) | < 1 nM |
| N#Cc1ccc(O[C@H]2CC[C@H](NC(=O)c3ccc(N4CCC(CN5CCN(c6cc(C(=O)O)c(C(=O)NC7CCC(=O)NC7=O)cc6F)CC5)CC4)nn3)CC2)cc1Cl (stereo partly shown) [PROTAC-57, 5-(4-((1-(6-(((1r,4r)-4-(3-chloro-4-cyanophenoxy)cyclohexyl)carbamoyl)pyridazin-3-yl)piperidin-4-yl)methyl)piperazin-1-yl)-2-((2,6-dioxopiperidin-3-yl)carbamoyl)-4-fluorobenzoic acid] | A (A > 75) | 1 to 10 nM |
| CC1(C)[C@H](NC(=O)c2ccc(CCCN3CCC4(CC3)CC(=O)N(C3CCC(=O)NC3=O)C4=O)cc2)C(C)(C)[C@H]1Oc1ccc(C#N)c(Cl)c1 (mixture of isomers) [PROTAC-76, rac-N-((1r,3r)-3-(3-chloro-4-cyanophenoxy)-2,2,4,4-tetramethylcyclobutyl)-4-(3-(2-(2,6-dioxopiperidin-3-yl)-1,3-dioxo-2,8-diazaspiro[4.5]decan-8-yl)propyl)benzamide] | C (C <= 50) | ≥ 100 nM |
| CN(C(=O)c1ccc(OCCCCCN2CCN(c3ccc(C(=O)N[C@H]4C(C)(C)[C@H](Oc5ccc(C#N)c(Cl)c5)C4(C)C)cn3)CC2)cc1)C1CCC(=O)NC1=O (mixture of isomers) [PROTAC-49, rac-N-((1r,3r)-3-(3-chloro-4-cyanophenoxy)-2,2,4,4-tetramethylcyclobutyl)-6-(4-(5-(4-((2,6-dioxopiperidin-3-yl)(methyl)carbamoyl)phenoxy)pentyl)piperazin-1-yl)nicotinamide] | C (C <= 50) | ≥ 100 nM |
| Cn1c(-c2ccc(N3CCN(CC4CCN(c5ccc(C(=O)N[C@H]6C(C)(C)[C@H](Oc7ccc(C#N)c(Cl)c7)C6(C)C)cc5)CC4)CC3)cc2)nn(C2CCC(=O)NC2=O)c1=O (stereo partly shown) [PROTAC-70, N-((1r,3r)-3-(3-chloro-4-cyanophenoxy)-2,2,4,4-tetramethylcyclobutyl)-4-(4-((4-(4-(1-(2,6-dioxopiperidin-3-yl)-4-methyl-5-oxo-4,5-dihydro-1H-1,2,4-triazol-3-yl)phenyl)piperazin-1-yl)methyl)piperidin-1-yl)benzamide] | A (A > 75) | < 1 nM |
| CC1(C)[C@H](NC(=O)c2ccc(N3CCC(CN4CCC5(CC4)CC(=O)N(C4CCC(=O)NC4=O)C5=O)CC3)cc2)C(C)(C)[C@H]1Oc1ccc(C#N)c(Cl)c1 (mixture of isomers) [PROTAC-75, rac-N-((1r,3r)-3-(3-chloro-4-cyanophenoxy)-2,2,4,4-tetramethylcyclobutyl)-4-(4-((2-(2,6-dioxopiperidin-3-yl)-1,3-dioxo-2,8-diazaspiro[4.5]decan-8-yl)methyl)piperidin-1-yl)benzamide] | 6C (C <= 50) | ≥ 100 nM |
| CC1(C)[C@H](NC(=O)c2ccc(CCCCN3CCC4(CC3)CC(=O)N(C3CCC(=O)NC3=O)C4=O)cc2)C(C)(C)[C@H]1Oc1ccc(C#N)c(Cl)c1 (mixture of isomers) [PROTAC-78, rac-N-((1r,3r)-3-(3-chloro-4-cyanophenoxy)-2,2,4,4-tetramethylcyclobutyl)-4-(4-(2-(2,6-dioxopiperidin-3-yl)-1,3-dioxo-2,8-diazaspiro[4.5]decan-8-yl)butyl)benzamide] | C (C <= 50) | ≥ 100 nM |
